Read-outs that look alike come from different tables or passages of the source.
Columns and labels:
[1] = test system: rats with chronic cerebral ischemia induced by chronic bilateral ligation of common carotid arteries; settings: for Latency, s Post-shock / Latency, s Pre-shock: test on day 8 since ligation, mean±SD, n=8; for Latency, s Post-shock: 24 hours after the shock
Protocol: The effect of the compound of the formula (I) on cognitive function was assessed in rats with chronic cerebral ischemia induced by chronic bilateral ligation of common carotid arteries. The ligation was made in Wistar male rats 3 hours prior the first injection of the compound of the formula (I) or saline. Rats were injected i.p. with 1 mg/kg or 50 mg/kg the compound of the formula (I) or saline (control) for 7 days singly a day. Passive avoidance step-through paradigm test (short-term learning) was made on day 8th since the ligation. The pre-shock and post-shock latency time was used as an index of cognitive impairments. […] Data are presented in table 1 as the latency time mean±SD (n=8).

[2] = test system: rats with cognitive impairments induced by amyloid injection (A-beta 25-35 in nucleus basalis magnocellularis); settings: for Number of visits Repeated (to the same arm) / Number of visits Total (visited arms): Y-maze 5 min, next day after last injection, mean±SD, n=8
Protocol: Beta-amyloid 25-35 (A-beta 25-35) was injected in nucleus basalis magnocellularis (NBM) of rats to induce model of cognitive impairments relevant to human Alzheimer's disease as described. Harkany T et al., Behav Brain Res. 1998 90(2):133-45. Harkany T et al., Prog Neuropsychopharmacol Biol Psychiatry. 1999 23(6):963-1008.
A-beta 25-35 was administered bilaterally into NBM of male Wistar rats in dose of 2 μg per each side. Since 16th day of A-beta 25-35 injection, rats were injected i.p. with 1 mg/kg or 50 mg/kg the compound of the formula (I) or saline (control) for 7 days singly a day. The effect of the compound of the formula (I) on cognitive functions was tested in a model of spontaneous alteration in Y-maze at next day from the day of the last injection. It is a suitable model for assessing memory impairments. Total number of visited arms and number of repeated visits to the same arm for 5 min was counted. […] Data are presented in table 2 as the number of visits mean±SD (n=8).

[3] = 1 mg/kg i.p. once a day for 7 days
[4] = 50 mg/kg i.p. once a day for 7 days
[5] = 1 mg/kg i.p. once a day for 7 days from day 16 after A-beta 25-35
[6] = 50 mg/kg i.p. once a day for 7 days from day 16 after A-beta 25-35

In the case of `C[N+](C)(C)CCO.C[N+](C)(C)CCO.O=C([O-])CCC(=O)[O-]` [Compound of the formula (I), bis[2-hydroxyethyl-N,N,N-trimethylaminium]butanedioate], the “Latency, s Post-shock” value [1, 3] is reported as 99.3 ± 24.5 s, the “Latency, s Pre-shock” value [1, 3] is reported as 13.5 ± 4.3 s and the “Latency, s Post-shock” value [1, 4] is reported as 53.3 ± 16.3 s. For the same compound, the “Latency, s Pre-shock” value [1, 4] was 27.7 ± 13.1 s, the “Effect on cognitive function as compared to the control” value ([1]; cognitive impairments induced by chronic cerebral ischemia, vs saline control) was “significantly enhanced cognitive function” and the “Number of visits Repeated (to the same arm)” value [2, 5] was 0.65 ± 0.24. The “Number of visits Total (visited arms)” value [2, 5] was 3.00 ± 0.41, the “Number of visits Repeated (to the same arm)” value [2, 6] was 0.75 ± 0.29 and the “Number of visits Total (visited arms)” value [2, 6] was 2.55 ± 0.33. For the same compound, the “Effect on cognitive function (memory) as compared to the control” value ([2]; cognitive function impaired by amyloid toxicity, vs saline control) was “significantly enhanced cognitive function (memory)”.

Reference: patent US20060199862A1, “Method for enhancing cognitive function” (priority 2005, published 2006)
